Measurements as given in patent US5633231A, “Valine-containing pseudopeptides with antiviral activity” (Bayer Aktiengesellschaft, priority 1993, dated 1997).

What was measured:
HCMV (Davis) = assay: Anti-HCMV (Davis) activity: inhibition of the cytopathogenic effect in HELF cell cultures, 96-well screening test; type: cell-based, human cytomegalovirus
Protocol: (§1) The anti-HCMV effect was determined in a screening test system in 96-well microtitre plates with the aid of human embryonic lung fibroblast (HELF) cell cultures. The influence of the substances on the spread of the cytopathogenic effect was compared with that of the reference substance ganciclovir ([…]® sodium), a clinically approved anti-HCMV chemotherapeutic agent. The substances, dissolved (50 mM) in DMSO (dimethyl sulphoxide), are investigated on microtitre plates (96-well) at final concentrations of 1000-0.00048 μM (micromolar) in double determinations (4 substances/plate). In this test, both the toxic and cytostatic effects of the substances are recorded. […] After staining with neutral red and fixing with formalin/methanol, the plates are evaluated using a projection microscope (plaque viewer).

[1] = system: human embryonic lung fibroblast (HELF) cell cultures; assay: Anti-cellular (toxic and cytostatic) effect on HELF cells in the same screening test; type: cell-based; details: 6 days at 37° C.
Protocol: as §1

Nc1nc(O)c2ncn(COC(CO)CO)c2n1 [Cymevene^R Na, ganciclovir]
SI (selectivity index) (HCMV (Davis); HELF versus HCMV, definition given only as a drawing): 32-64 | IC50 (HCMV (Davis); Human betaherpesvirus 5, 144 h, read-out: IC50 (μM) (HCMV) = concentration which elicits 50% inhibition of the CPE, HCMV (Davis)-infected HELF cells, 6 days, neutral red staining): 2 to 4 µM | CIC50 (μM) (HELF) = highest concentration at which no obvious anticellular effect is evident [1]: 125 µM
